Experimental data taken from patent US7547678B2, “Method for treating a disease, disorder or adverse effect caused by an elevated serum concentration of an UGT1A1 substrate” (Abbott Laboratories, priority 2008, dated 2009).
Where “and” joins values, the source holds several entries; their conditions need not be identical. Identical values can stand only once.

Columns and labels:
[1] = system: bilirubin conjugation in human microsomes; details: in vitro system of human microsomes; cited from earlier work
[2] = one study, subjects taking atazanavir; cited from earlier work
UGT1A1 isoform = target: T1, UGT1A1 isoform (Homo sapiens, UniProt P22309); details: human cells transfected with the UGT1A1 isoform; cited from earlier work
T1 sequence (P22309 26-533): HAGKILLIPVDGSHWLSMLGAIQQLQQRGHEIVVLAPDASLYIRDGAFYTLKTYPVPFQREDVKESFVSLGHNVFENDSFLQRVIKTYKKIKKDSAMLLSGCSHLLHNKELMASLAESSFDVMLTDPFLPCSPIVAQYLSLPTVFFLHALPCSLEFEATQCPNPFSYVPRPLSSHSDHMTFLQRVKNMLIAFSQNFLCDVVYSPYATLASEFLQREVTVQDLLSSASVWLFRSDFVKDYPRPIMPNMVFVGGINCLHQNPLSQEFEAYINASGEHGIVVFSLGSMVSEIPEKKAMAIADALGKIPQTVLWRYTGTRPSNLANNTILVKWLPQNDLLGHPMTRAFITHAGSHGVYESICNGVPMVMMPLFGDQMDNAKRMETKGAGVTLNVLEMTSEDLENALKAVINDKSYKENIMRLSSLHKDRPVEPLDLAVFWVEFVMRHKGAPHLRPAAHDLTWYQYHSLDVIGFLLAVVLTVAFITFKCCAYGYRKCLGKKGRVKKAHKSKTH

[3] = system: UDP-glucuronosyltransferase 1A (UGT 1A); assay: Affymetrix Rat U34 microarray of liver RNA after oral ritonavir; assay type: in vivo, Sprague-Dawley rats
UGT1A1 = assay: Hepatic 17α-ethinylestradiol glucuronidation activity in liver microsomes of treated rats; details: both male and female rats
[4] = system: bilirubin-conjugating activity; details: indinavir treatment; cited from earlier work
[5] = Ethinylestradiol pharmacokinetics alone and with ritonavir in healthy female volunteers; assay type: in vivo, human
Experimental: This was an open-label, single-center study in healthy female volunteers who had not received an oral contraceptive for a minimum of six months prior to study start. Subjects received the first dose of oral contraceptive containing 50 μg of ethinyl estradiol on Day 1. […] On Day 15, 300 mg q12h was administered, 400 mg q12h was given on Day 16, and 500 mg q12h was administered thereafter. […] Blood samples for ethinylestradiol concentrations were collected for 48 h after each of the oral contraceptive doses.
Twenty-seven subjects were enrolled in the study. […] Data from these four subjects were therefore excluded from summary statistics. The mean ±SD age of the 23 subjects who completed the study was 34±10 yrs (range 19 to 45 yrs), the mean ±SD weight was 67.3±10.9 kg (range 50.8 to 90.3 kg), and the mean ±SD height was 167±7 cm (range 155 to 180 cm).
Ethinylestradiol was supplied as Demulen@ 1/50-21 tablets (G.D. Searle & Co.) containing 50 μg of ethinylestradiol and 1 mg of ethynodiol diacetate and was administered at 8:00 a.m. on Day 1 and Day 29 with approximately 240 mL of water and within 15 minutes of a meal or snack.
Subjects were confined for 64 hours from Day-1 (day prior to the initial dose) through the first 48 hour blood collection (morning of Day 3) and for 64 hours from Day 28 through the second 48 hour blood collection (morning of Day 31). In addition, subjects came to the clinical testing unit as outpatients for meals, dosing and other study activities twice daily for a total of 14 consecutive days, starting on Day 15. Strenuous activity during confinement was not permitted. During confinement, subjects abstained from all food and beverages except for the scheduled meals and snacks provided in the study. Water was available ad libitum. All meals were standardized with regard to content during confinement. Breakfast, lunch, and dinner were served at approximately 7:30 a.m., 1:00 p.m. and 7:30 p.m. and snacks were provided at approximately 10:00 p.m., except on Days-1 and 28 when the snack was served at 9:45 p.m. An 8 hour fast was required prior to all blood collections for clinical laboratory analyses. The sequence of starting breakfast and dinner on each dosing day during confinement was maintained to the minute such that the time intervals relative to dosing were the same among all subjects.
Blood samples (7 mL) were collected for serum ethinyl estradiol concentrations at the following times relative to the dose on Day 1 and Day 29: prior to (0 h) and at 0.5, 1, 2, 3, 4, 6, 8, 10, 12, 18, 24, 30, 36, and 48 h post-dose. […] All plasma and serum samples were packed with dry ice and shipped to the analytical sites.
Serum samples were analyzed for ethinylestradiol concentrations at Pharmaco LSR, Richmond, Va.
Analysis of serum samples for determination of ethinyl estradiol was performed at Pharmaco LSR, Richmond, Va. Ethinylestradiol serum concentrations were determined using a gas chromatography/mass spectrometry (GC/MS) method. 17α-ethinylestradiol and its corresponding isotopically labeled internal standard were isolated from human serum by buffering the serum to pH 8.6 and then extracting with an ethyl ether/methylene chloride mixture. The organic layer was exchanged into aqueous base, washed with hexane and then acidified and extracted with methylene chloride. […] This method has been validated over 17α-ethinylestradiol concentrations ranging from 2.00 to 256 pg/mL for a 1.0 mL serum volume, with a minimum quantitation limit of 2.00 pg/mL. […]

[6] = 1-Day Studies, 20 mg/kg oral, liver RNA, 20 mg/kg
[7] = 1-Day Studies, 50 mg/kg oral, liver RNA, 50 mg/kg
[8] = 3-Day Studies, 50 mg/kg oral daily, liver RNA, 50 mg/kg
[9] = Mean ± SD, n = 23, single 50 μg ethinylestradiol dose, alone (Day 1) or on Day 29 during ritonavir 500 mg q12h, serum

## COC(=O)N[C@H](C(=O)N[C@@H](Cc1ccccc1)[C@@H](O)CN(Cc1ccc(-c2ccccn2)cc1)NC(=O)[C@@H](NC(=O)OC)C(C)(C)C)C(C)(C)C [Atazanavir]
[1]
  inhibition of bilirubin conjugation (result in words): inhibits bilirubin conjugation in the micromolar range
[2]
  subjects exhibiting unconjugated hyperbilirubinemia: 57%
UGT1A1 isoform
  inhibition of bilirubin conjugation (result in words): inhibits bilirubin conjugation in the micromolar range

## CC(C)c1nc(CN(C)C(=O)N[C@H](C(=O)N[C@@H](Cc2ccccc2)C[C@H](O)[C@H](Cc2ccccc2)NC(=O)OCc2cncs2)C(C)C)cs1 [ritonavir, Ritonavir]
[3]; 1-Day Studies, 20 mg/kg oral, liver RNA
  Fold change, UDP-glucuronosyltransferase 1 family, member 1 (1st probe sequence): 1.63
[3]; [6]
  Fold change, 3-methylcholanthrene-inducible UDP-glucuronosyltransferase: 1.83 and 1.54
  Fold change, UDP-glucuronosyltransferase 1 family, member 1 (2nd probe sequence): 1.68 and 1.51
  Fold change, UDP-glucuronosyltransferase 1 family, member 1 (3rd probe sequence): 1.8 and 1.52
[3]; 1-Day Studies, 50 mg/kg oral, liver RNA
  Fold change, UDP glucuronosyltransferase, exon 1.: 2.43
[3]; [7]
  Fold change, 3-methylcholanthrene-inducible UDP-glucuronosyltransferase: 1.63 and 2.1
  Fold change, UDP-glucuronosyltransferase 1 family, member 1 (1st probe sequence): 1.68 and 1.63
  Fold change, UDP-glucuronosyltransferase 1 family, member 1 (2nd probe sequence): 2.12 and 2.05
  Fold change, UDP-glucuronosyltransferase 1 family, member 1 (3rd probe sequence): 1.75 and 2.12
[3]; [8]
  Fold change, 3-methylcholanthrene-inducible UDP-glucuronosyltransferase: 1.54 and 1.85
  Fold change, UDP-glucuronosyltransferase 1 family, member 1 (3rd probe sequence): 1.31 and 1.33
[3]; dose levels of 100 mg/kg and higher, after 1 and 3 days of treatment
  UGT1A levels for all probe sets: consistent increase
UGT1A1
  glucuronidation of 17α-ethinylestradiol, a UGT1A1 substrate (result in words): significantly increase

## CC(C)(C)NC(=O)[C@@H]1CN(Cc2cccnc2)CCN1C[C@@H](O)C[C@@H](Cc1ccccc1)C(=O)N[C@H]1c2ccccc2C[C@H]1O [Indinavir]
[4]
  cause of elevations in serum-unconjugated bilirubin (result in words): direct inhibition of bilirubin-conjugating activity

## C#C[C@]1(O)CC[C@H]2[C@@H]3CCc4cc(O)ccc4[C@H]3CC[C@@]21C [Ethinylestradiol, 17α-ethinylestradiol]
[5]; [9]
  Ethinylestradiol AUC∞: 1670 ± 377 pg·h/mL
  Ethinylestradiol Cmax: 104 ± 24 pg/mL
  Ethinylestradiol Tmax: 4.0 ± 1.7 h
  Ethinylestradiol β (terminal elimination rate constant): 0.0407 ± 0.0082 h⁻¹
[5]; single dose of oral contraceptive alone
  time at which serum ethinylestradiol concentrations peaked post-dose: approximately 4 h
